How the values were obtained:
FRDA cell line = test: Trypan blue exclusion cell viability assay, DEM-stressed cells; assay type: cell-based; conditions: FRDA cells stressed with DEM
Experimental: Friedreich's Ataxia lymphocytes and control cells (Coriell, catalogue number […], respectively) were cultured in RPMI (GIBCO, Grand island, NY, USA) with 15% FBS (Fisher Scientific, TX, USA), 2 mM glutamine (HyClone, South Logan, Utah, USA) and 1% penicillin-streptomycin mix antibiotics (Cellgro, Manassas, Va., USA) supplements. Cells were maintained in the log phase at a concentration of between 1×10^5 and 1×10^6 cells/mL.
V. Trypan Blue Cell Viability Assay
Cell viability determined by trypan blue exclusion assay: This technique was used to assess the cytoprotective effects of the invention compounds in cultured cells pharmacologically treated to induce cell death by GSH depletion. DEM was used to deplete cellular GSH and induce oxidative stress. The viability of DEM-treated cells was determined by their ability to exclude the dye trypan blue. Viable cells exclude trypan blue; whereas, non-viable cells take up the dye and stain blue. Briefly, cells were seeded at a density of 1×10^6 cells/mL and treated with different concentrations of the invention compounds. Cells were incubated at 37° C. in a humidified atmosphere of 5% CO2 in air for three hours with 5 mM DEM. Cell viability was determined by staining cells with 0.4% trypan blue using a hemocytometer. At least 500 cells were counted for each experimental group. At the time of assay, >95% of DEM-treated cells were trypan blue positive; whereas, in non-DEM treated control cell cultures >95% cells were viable. Cell viability was expressed as the percentage of control. Data are expressed as means±S.E.M (n=3).

leukemia CEM lymphocytes = test: Suppression of lipid peroxidation (C11-BODIPY 581/591, FACS) in DEM-treated cells; assay type: cell-based; conditions: CEM cells treated with DEM, untreated control 100, treated control 0
Experimental: (§1) Leukemic CEM cells (ATCC®, catalogue number CRL-2264) were cultured in RPMI (GIBCO, Grand island, NY, USA) with 10% FBS (Fisher Scientific, TX, USA), 2 mM glutamine (HyClone, South Logan, Utah, USA) and 1% penicillin-streptomycin mix antibiotics (Cellgro, Manassas, Va., USA) supplements. Cells were maintained in the log phase at a concentration of between 1×10^5 and 1×10^6 cells/mL.
Measurement of C11-BODIPY^581/591 Oxidation in Cell Culture
Lipid peroxidation in cells was detected by utilizing the oxidant-sensitive lipophilic probe C11 BODIPY^581/591. […] Cells were treated with 500 nM C11 BODIPY^581/591 in phenol red-free RPMI-1640 media and incubated at 37° C. in the dark for 30 minutes. The cells were washed twice with phosphate buffered saline and oxidative stress was induced with 5 mM DEM in phenol red-free RPMI-1640 media for 90 minutes. Treated cells were collected by centrifugation at 300×g for 3 minutes and then washed twice with phosphate buffered saline. Cells were re-suspended in 250 μL of phosphate buffered saline and were analyzed by FACS (FACS Calibur flow cytometer, Becton Dickinson) to monitor the change in intensity of the C11 BODIPY^581/591 green (oxidized) fluorescence signal.

[1] = test system: bovine heart mitochondrial complex (I, III, IV); test: NADH oxidase inhibition assay (beef heart submitochondrial particles); assay type: biochemical
Experimental: X. NADH Oxidase Inhibition Assay
Beef heart mitochondria were obtained by a large-scale procedure. Inverted submitochondrial particles (SMP) were prepared by the method of Matsuno-Yagi and Hatefi (J. Biol. Chem. 260 (1985), p. 14424), and stored in a buffer containing 0.25 M sucrose and 10 mM Tris-HCl (pH 7.4) at −80° C. Inhibitory effects of compounds on bovine heart mitochondrial complex (I, III, IV) were evaluated. Maximal dimethyl sulfoxide concentration never exceeded 2% and had no influence on the control enzymatic activity. Beef heart SMP were diluted to 0.5 mg/mL. The enzymatic activities were assayed at 30° C. and monitored spectrophotometrically with a Beckman Coulter DU-530 (340 nm, ε=6.22 mM^−1 cm^−1). NADH oxidase activity was determined in a reaction medium (2.5 mL) containing 50 mM Hepes, pH 7.5, containing 5 mM MgCl2. The final mitochondrial protein concentration was 30 μg/mL. After the pre-equilibration of SMP with inhibitor for 5 min, the initial rates were calculated from the linear portion of the traces.

CEM leukemia cells = test: Suppression of ROS production (DCFH-DA, flow cytometry) in DEM-treated cells; assay type: cell-based; conditions: CEM cells treated with DEM, untreated control 100, treated control 0
Experimental: as §1
Cellular ROS production can be monitored using 2′,7′-dichlorodihydrofluorescein diacetate (DCFH-DA) (LeBel et al. (1992) Chem. Res. Toxicol. 5, 227-231) (Molecular Probes, Eugene, Oreg., USA), a membrane permeable and oxidant-sensitive fluorescent dye. DCFH-DA is a non-fluorescent derivative of fluorescein that emits fluorescence after being oxidized by hydrogen peroxide and other ROS. The emitted fluorescence is directly proportional to the concentration of hydrogen peroxide. DCFH-DA is nonionic and nonpolar and is easily taken up by cells. Once inside the cell, DCFH-DA is hydrolyzed by cellular esterases to non-fluorescent DCFH which traps the dye in the cell. In the presence of ROS including hydrogen peroxide, DCFH is oxidized to the highly fluorescent compound dichlorofluorescein (DCF). The intracellular DCF fluorescence is used as an index of cellular ROS production.
Cellular oxidative stress was induced by pharmacological depletion of glutathione (GSH) using the chemical diethylmaleate (DEM). […] The compounds tested were prepared by first making stock solutions (1 mM) in dimethylsulfoxide (DMSO). Cells were treated with 5 mM DEM for 30 minutes and collected by centrifugation at 300×g for 3 min and then washed twice with Phosphate Buffer Saline (PBS) (Invitrogen, N.Y., USA). Cells were re-suspended in PBS buffer+10 mM glucose and incubated at 37° C. in the dark for 20 min with 10 μM DCFH-DA. Cells were collected by centrifugation at 300×g for 3 min and then washed twice with PBS buffer. The samples were analyzed immediately by flow cytometry (Becton-Dickinson FACS Caliber), (Cell Quest software, BD Biosciences) using 488 nm excitation laser and FL1-H channel 538 nm emission filter. In each analysis, 10,000 events were recorded after cell debris were electronically gated out. Results obtained were verified by running duplicates and repeating experiments N=3 independent experiments. Authentic hydrogen peroxide was used as a positive control.

CCCCCCCc1c(C)n(O)c(C)c(Br)c1=O [CPD-9, 3-bromo-5-heptyl-1-hydroxy-2,6-dimethylpyridin-4(1H)-one]
viability at 0.1 µM (FRDA cell line): 31 ± 12% | viability at 0.5 µM (FRDA cell line): 28 ± 7% | viability at 2.5 µM (FRDA cell line): 32 ± 5% | Scavenging activity (%) (lipid peroxidation) (leukemia CEM lymphocytes; 1 μM): 0% | Scavenging activity (%) (lipid peroxidation) (leukemia CEM lymphocytes; 5 μM): 0%

CCCCCCCCCCCCCCCCc1c(C)n(O)c(C)c(N)c1=O [CPD-4, 3-amino-5-hexadecyl-1-hydroxy-2,6-dimethylpyridin-4(1H)-one]
NADH oxidase (complex I, III, IV) activity (%) ([1]; 5 μM compound): 12.7 ± 1.7% | NADH oxidase (complex I, III, IV) activity (%) ([1]; 10 μM compound): 10.7 ± 1.3% | NADH oxidase (complex I, III, IV) activity (%) ([1]; l μM compound): 17.1 ± 1^ % | viability at 0.1 µM (FRDA cell line): 17 ± 5% | viability at 0.5 µM (FRDA cell line): 21 ± 9% | viability at 2.5 µM (FRDA cell line): 35 ± 9% | % of scavenging activity (ROS) (CEM leukemia cells; 0.25 μM): 41.4 ± 14.9% | % of scavenging activity (ROS) (CEM leukemia cells; 2.5 μM): 81.8 ± 3.7% | % of scavenging activity (ROS) (CEM leukemia cells; 10 μM): 91.0 ± 1.5% | Scavenging activity (%) (lipid peroxidation) (leukemia CEM lymphocytes; 1 μM): 18 ± 2.2% | Scavenging activity (%) (lipid peroxidation) (leukemia CEM lymphocytes; 2.5 μM): 52 ± 1.5% | Scavenging activity (%) (lipid peroxidation) (leukemia CEM lymphocytes; 5 μM): 94 ± 0.2%

CCCCCCCCCCc1c(C)n(O)c(C)c(Br)c1=O [CPD-10, 3-bromo-5-decyl-1-hydroxy-2,6-dimethylpyridin-4(1H)-one]
viability at 0.1 µM (FRDA cell line): 19 ± 6% | viability at 0.5 µM (FRDA cell line): 20 ± 13% | viability at 2.5 µM (FRDA cell line): 32 ± 8% | Scavenging activity (%) (lipid peroxidation) (leukemia CEM lymphocytes; 1 μM): 0% | Scavenging activity (%) (lipid peroxidation) (leukemia CEM lymphocytes; 5 μM): 0%

C=Cc1c(C)n(O)c(C)c(CCCCCCCCCCCCCCCC)c1=O [CPD-2, 3-hexadecyl-1-hydroxy-2,6-dimethyl-5-vinylpyridin-4(1H)-one]
NADH oxidase (complex I, III, IV) activity (%) ([1]; 5 μM compound): 12 ± 0.8% | NADH oxidase (complex I, III, IV) activity (%) ([1]; 10 μM compound): 11.9 ± 1.6% | NADH oxidase (complex I, III, IV) activity (%) ([1]; l μM compound): 20.1 ± 1.4% | viability at 0.1 µM (FRDA cell line): 10 ± 3% | viability at 0.5 µM (FRDA cell line): 14 ± 5% | viability at 2.5 µM (FRDA cell line): 15 ± 4% | % of scavenging activity (ROS) (CEM leukemia cells; 0.25 μM): 31.1 ± 1.3% | % of scavenging activity (ROS) (CEM leukemia cells; 2.5 μM): 25.3 ± 5.2% | % of scavenging activity (ROS) (CEM leukemia cells; 10 μM): 35.2 ± 3.9% | Scavenging activity (%) (lipid peroxidation) (leukemia CEM lymphocytes; 1 μM): 7 ± 2.8% | Scavenging activity (%) (lipid peroxidation) (leukemia CEM lymphocytes; 2.5 μM): 13 ± 4.2% | Scavenging activity (%) (lipid peroxidation) (leukemia CEM lymphocytes; 5 μM): 0%

CCCCCCCCCCCCCCCCc1c(C)n(O)c(C)c(Br)c1=O [CPD-11, 3-bromo-5-hexadecyl-1-hydroxy-2,6-dimethylpyridin-4(1H)-one]
viability at 0.1 µM (FRDA cell line): 12 ± 5% | viability at 0.5 µM (FRDA cell line): 6 ± 3% | viability at 2.5 µM (FRDA cell line): 8 ± 3% | Scavenging activity (%) (lipid peroxidation) (leukemia CEM lymphocytes; 1 μM): 7 ± 2.3% | Scavenging activity (%) (lipid peroxidation) (leukemia CEM lymphocytes; 5 μM): 15 ± 3.3%

C=Cc1c(C)n(O)c(C)c(CCCCCCC)c1=O [CPD-1, 3-heptyl-1-hydroxy-2,6-dimethyl-5-vinylpyridin-4(1H)-one]
NADH oxidase (complex I, III, IV) activity (%) ([1]; 5 μM compound): 20.7 ± 2.2% | NADH oxidase (complex I, III, IV) activity (%) ([1]; 10 μM compound): 13.2 ± 1^ % | NADH oxidase (complex I, III, IV) activity (%) ([1]; l μM compound): 29.7 ± 3.8% | viability at 0.1 µM (FRDA cell line): 25 ± 6% | viability at 0.5 µM (FRDA cell line): 42 ± 3% | viability at 2.5 µM (FRDA cell line): 30 ± 6% | % of scavenging activity (ROS) (CEM leukemia cells; 0.25 μM): 23.4 ± 1.6% | % of scavenging activity (ROS) (CEM leukemia cells; 2.5 μM): 22.2 ± 3.5% | % of scavenging activity (ROS) (CEM leukemia cells; 10 μM): 20.0 ± 4.4% | Scavenging activity (%) (lipid peroxidation) (leukemia CEM lymphocytes; 1 μM): 0% | Scavenging activity (%) (lipid peroxidation) (leukemia CEM lymphocytes; 2.5 μM): 0% | Scavenging activity (%) (lipid peroxidation) (leukemia CEM lymphocytes; 5 μM): 0%

CCCCCCCc1c(C)n(O)c(C)c(Cl)c1=O [CPD-12, 3-chloro-5-heptyl-1-hydroxy-2,6-dimethylpyridin-4(1H)-one]
viability at 0.1 µM (FRDA cell line): 15 ± 6% | viability at 0.5 µM (FRDA cell line): 29 ± 3% | viability at 2.5 µM (FRDA cell line): 39 ± 3% | Scavenging activity (%) (lipid peroxidation) (leukemia CEM lymphocytes; 1 μM): 0% | Scavenging activity (%) (lipid peroxidation) (leukemia CEM lymphocytes; 5 μM): 0%

CCCCCCCCCCc1c(C)n(O)c(C)cc1=O [CPD-7, 3-decyl-1-hydroxy-2,6-dimethylpyridin-4(1H)-one]
viability at 0.1 µM (FRDA cell line): 36 ± 6% | viability at 0.5 µM (FRDA cell line): 14 ± 5% | viability at 2.5 µM (FRDA cell line): 20 ± 3% | Scavenging activity (%) (lipid peroxidation) (leukemia CEM lymphocytes; 1 μM): 0% | Scavenging activity (%) (lipid peroxidation) (leukemia CEM lymphocytes; 5 μM): 0%

CCCCCCCCCCc1c(C)n(O)c(C)c(Cl)c1=O [CPD-13, 3-chloro-5-decyl-1-hydroxy-2,6-dimethylpyridin-4(1H)-one]
viability at 0.1 µM (FRDA cell line): 17 ± 3% | viability at 0.5 µM (FRDA cell line): 14 ± 2% | viability at 2.5 µM (FRDA cell line): 19 ± 5% | Scavenging activity (%) (lipid peroxidation) (leukemia CEM lymphocytes; 1 μM): 0% | Scavenging activity (%) (lipid peroxidation) (leukemia CEM lymphocytes; 5 μM): 0%

CCCCCCCCCCCCCCCCc1c(C)n(O)c(C)cc1=O [CPD-8, 3-hexadecyl-1-hydroxy-2,6-dimethylpyridin-4(1H)-one]
viability at 0.1 µM (FRDA cell line): 19 ± 6% | viability at 0.5 µM (FRDA cell line): 15 ± 5% | viability at 2.5 µM (FRDA cell line): 18 ± 2% | Scavenging activity (%) (lipid peroxidation) (leukemia CEM lymphocytes; 1 μM): 10 ± 4.3% | Scavenging activity (%) (lipid peroxidation) (leukemia CEM lymphocytes; 5 μM): 20 ± 3.4%

CCCCCCCc1c(C)n(O)c(C)cc1=O [CPD-6, 3-heptyl-1-hydroxy-2,6-dimethylpyridin-4(1H)-one]
viability at 0.1 µM (FRDA cell line): 27 ± 7% | viability at 0.5 µM (FRDA cell line): 30 ± 13% | viability at 2.5 µM (FRDA cell line): 24 ± 6% | Scavenging activity (%) (lipid peroxidation) (leukemia CEM lymphocytes; 1 μM): 0% | Scavenging activity (%) (lipid peroxidation) (leukemia CEM lymphocytes; 5 μM): 0%

Reference: patent publication US9388163B2, “Multifunctional radical quenchers for the treatment of mitochondrial dysfunction” (Arizona Board of Regents, a Body Corporate of the State of …, priority 2011, dated 2016)
